Reference: EPA's ToxRefDB 2

What was measured:
rat [1] = conditions: Prenatal developmental toxicity study; wistar; Oral; Gavage/Intubation; dose end: 5 GD; group: maternal; reproductive / reproductive performance / implantations / implantations
rat [2] = conditions: Developmental neurotoxicity range-finding study; sprague dawley; Oral; Feed; dose end: 21 PND; group: cannot be grouped; systemic / in life observation / body weight / body weight + systemic / in life observation / body weight / body weight gain + systemic / in…
rat [3] = conditions: Subchronic oral toxicity in rodents, Feed, dose end: 90 day, group: systemic
dog [4] = conditions: Chronic toxicity, beagle, Oral, Feed, dose end: 52 week, group: systemic
mouse [5] = conditions: Carcinogenicity; cd1; Oral; Feed; dose end: 104 week; group: systemic; systemic / in life observation / clinical signs / hyperactivity
dog [6] = conditions: Subchronic oral toxicity in nonrodent, beagle, Feed, dose end: 90 day, group: systemic, systemic / in life observation / clinical signs / defecation (diarrhea) + systemic / in life observation / clinical signs / emesis + …
rat [7] = conditions: Developmental neurotoxicity study; sprague dawley; Inhalation; Whole-Body; dose end: 365 PND; group: cannot be grouped; systemic / in life observation / body weight / body weight gain + systemic / in life observation / body weight / offspring (pup) weight
rat [8] = conditions: Combined chronic toxicity/carcinogenicity; sprague dawley; Oral; Feed; dose end: 104 week; group: systemic; systemic / in life observation / body weight / body weight gain + systemic / pathology microscopic / kidney / concretion + systemic / …
rat [9] = conditions: Multigenerational reproductive toxicity study, sprague dawley, Oral, Feed, dose end: 2 generation
rabbit [10] = conditions: Prenatal developmental toxicity study, new zealand white, Oral, Gavage/Intubation, dose end: 19 GD, group: maternal
dog [11] = conditions: Chronic toxicity, beagle, Oral, Feed, dose end: 106 week, group: systemic
dog [12] = conditions: Chronic toxicity, beagle, Oral, Feed, dose end: 12 month
rabbit [13] = conditions: Prenatal developmental toxicity study; new zealand white; Oral; Gavage/Intubation; dose end: 19 GD; group: maternal; reproductive / reproductive performance / postimplantation loss / postimplantation loss + reproductive / reproductive performance / …
mouse [14] = conditions: Carcinogenicity, cd1, Oral, Feed, dose end: 18 month, group: systemic
dog [15] = conditions: Subchronic oral toxicity in nonrodent, beagle, Feed, dose end: 90 day, group: systemic
rat [16] = conditions: Combined chronic toxicity/carcinogenicity, fischer, Oral, Feed, dose end: 2 year, group: systemic
rat [17] = conditions: Multigenerational reproductive toxicity study, sprague dawley, Oral, Feed, dose end: 2 generation; remark: listed apart in the source
rat [18] = conditions: Prenatal developmental toxicity study, other, Oral, Gavage/Intubation, dose end: 15 GD
rat [19] = conditions: Combined chronic toxicity/carcinogenicity, other, Oral, Feed, dose end: 27 month, group: systemic
rat [20] = conditions: Multigenerational reproductive toxicity study, other, Oral, Feed, dose end: 3 generation
rat [21] = conditions: Combined chronic toxicity/carcinogenicity, other, Oral, Feed, dose end: 27 month, group: systemic; remark: listed apart in the source
rabbit [22] = conditions: Sub-acute dermal toxicity, new zealand white, Topical, dose end: 28 day, group: systemic, systemic / in life observation / body weight / body weight + systemic / in life observation / food consumption / food consumption + systemic…
mouse [23] = conditions: Combined chronic toxicity/carcinogenicity; other; Oral; Feed; dose end: 24 month; group: systemic; systemic / organ weight / thyroid gland / absolute + systemic / organ weight / thyroid gland / relative to body weight + systemic / organ …
rat [24] = conditions: Sub-acute repeat dose toxicity, other, Oral, Feed, dose end: 28 day, group: systemic
[25] = systemic / clinical chemistry / urea nitrogen / urea + systemic / clinical chemistry / alkaline phosphatase (alp/alk) / alkaline phosphatase…
[26] = systemic / in life observation / clinical signs / tremors + systemic / clinical chemistry / glucose / glucose + systemic / in life …
[27] = group: offspring, systemic / in life observation / body weight / offspring (pup) weight
[28] = group: parental, systemic / in life observation / body weight / body weight + systemic / in life observation / body weight / body weight gain + systemic / in…
[29] = reproductive / reproductive performance / resorptions / resorptions + systemic / in life observation / food consumption / food consumption
[30] = systemic / pathology microscopic / bone marrow / atrophy + systemic / pathology microscopic / kidney / congestion + systemic / pathology …
[31] = group: reproductive, reproductive / reproductive performance / estrous cycle / periodicity
[32] = group: systemic, systemic / in life observation / body weight / body weight + systemic / in life observation / body weight / body weight gain + systemic / in…
[33] = group: systemic, systemic / pathology microscopic / uterus / estrus
[34] = systemic / organ weight / liver / nos + systemic / pathology microscopic / liver / eosinophilic focus + systemic / pathology microscopic / …
[35] = systemic / in life observation / body weight / body weight gain
[36] = systemic / in life observation / body weight / body weight gain + systemic / in life observation / food consumption / food consumption
[37] = systemic / pathology gross / stomach / discolored + systemic / pathology gross / stomach / foci + systemic / pathology gross / stomach / …
[38] = group: offspring, systemic / in life observation / body weight / offspring (pup) weight + developmental / offspring survival late / lactation index / …
[39] = group: parental, systemic / in life observation / food consumption / food consumption + systemic / in life observation / body weight / body weight + systemic…
[40] = group: reproductive, reproductive / offspring survival early / birth index / live birth index
[41] = group: developmental, developmental / developmental malformation / bone / unossified
[42] = group: maternal, reproductive / reproductive performance / aborted / aborted + systemic / in life observation / body weight / body weight gain + systemic / …
[43] = systemic / in life observation / body weight / body weight + systemic / in life observation / food consumption / food consumption
[44] = systemic / in life observation / body weight / body weight + systemic / in life observation / food consumption / food consumption + systemic…
[45] = group: parental, systemic / in life observation / body weight / body weight + systemic / organ weight / brain / relative to body weight
[46] = group: parental, systemic / in life observation / body weight / body weight + systemic / pathology gross / full gross necropsy / hyperemia + systemic / …
[47] = group: reproductive, reproductive / reproductive performance / fertility / fertility + reproductive / reproductive performance / mating / mating + reproductive…
[48] = group: reproductive, reproductive / reproductive performance / mating / mating + reproductive / reproductive performance / pregnancy / pregnancy
[49] = systemic / in life observation / body weight / body weight
[50] = systemic / in life observation / body weight / body weight + systemic / pathology microscopic / testes / interstitial cell tumor benign + …
[51] = systemic / organ weight / liver / absolute + systemic / organ weight / liver / relative to brain weight
[52] = systemic / organ weight / liver / absolute + systemic / organ weight / liver / relative to brain weight + systemic / organ weight / liver / …

Cc1ccc(-c2cc(C(F)(F)F)nn2-c2ccc(S(N)(=O)=O)cc2)cc1 [Celecoxib]
LEL (rat [1]): 80 mg/kg/day
LOAEL (rat [1]): > 160 mg/kg/day
NEL (rat [1]): 40 mg/kg/day
NOAEL (rat [1]): ≥ 160 mg/kg/day

CC1(C)C(C(=O)OC(C#N)c2cccc(Oc3ccccc3)c2)C1(C)C (centres undefined) [Fenpropathrin]
LEL (rat [2]): 27 mg/kg/day
LOAEL (rat [2]): 27 mg/kg/day
NEL (rat [2]): 13 mg/kg/day
NOAEL (rat [2]): 13 mg/kg/day
LOAEL (rat [3]; systemic / clinical chemistry / alkaline phosphatase (alp/alk) / alkaline phosphatase (alp/alk) + systemic / hematology / blood clotting / …): 30 mg/kg/day
LEL (rat [3]; systemic / clinical chemistry / urea nitrogen / urea): 5 mg/kg/day
NEL (rat [3]; [25]): 1.5 mg/kg/day
NOAEL (rat [3]; [25]): 15 mg/kg/day
LOAEL (dog [4]; systemic / in life observation / clinical signs / tremors): 6.25 mg/kg/day
LEL (dog [4]; systemic / in life observation / clinical signs / tremors + systemic / clinical chemistry / glucose / glucose): 6.25 mg/kg/day
NEL (dog [4]; [26]): 2.5 mg/kg/day
NOAEL (dog [4]; [26]): 2.5 mg/kg/day
LEL (mouse [5]): 65.2 mg/kg/day
LOAEL (mouse [5]): > 65.2 mg/kg/day
NEL (mouse [5]): 16.2 mg/kg/day
NOAEL (mouse [5]): ≥ 65.2 mg/kg/day
LEL (dog [6]): 6.25 mg/kg/day
LOAEL (dog [6]): 6.25 mg/kg/day
NEL (dog [6]): < 6.25 mg/kg/day
NOAEL (dog [6]): < 6.25 mg/kg/day

FC(F)(F)C(Cl)Br (centres undefined) [Halothane]
LEL (rat [7]): 12.5 ppm
LOAEL (rat [7]): > 12.5 ppm
NEL (rat [7]): < 12.5 ppm
NOAEL (rat [7]): ≥ 12.5 ppm

CSc1nc(NC(C)C)nc(NC(C)C)n1 [Prometryn]
LEL (rat [8]): 60.9 mg/kg/day
LOAEL (rat [8]): 60.9 mg/kg/day
NEL (rat [8]): 29.4 mg/kg/day
NOAEL (rat [8]): 29.4 mg/kg/day
LEL (rat [9]; [27]): 47.8 mg/kg/day
LOAEL (rat [9]; [27]): 47.8 mg/kg/day
NEL (rat [9]; [27]): 0.6 mg/kg/day
NOAEL (rat [9]; [27]): 0.6 mg/kg/day
LEL (rat [9]; [28]): 47.8 mg/kg/day
LOAEL (rat [9]; [28]): 47.8 mg/kg/day
NEL (rat [9]; [28]): 0.6 mg/kg/day
NOAEL (rat [9]; [28]): 0.6 mg/kg/day
LOAEL (rabbit [10]; [29]): 72 mg/kg/day
NEL (rabbit [10]; [29]): 12 mg/kg/day
NOAEL (rabbit [10]; [29]): 12 mg/kg/day
LEL (rabbit [10]; reproductive / reproductive performance / resorptions / resorptions + systemic / in life observation / food consumption / food consumption…): 72 mg/kg/day
LOAEL (dog [11]; [30]): 37.5 mg/kg/day
NEL (dog [11]; [30]): 0.375 mg/kg/day
NOAEL (dog [11]; [30]): 3.75 mg/kg/day
LEL (dog [11]; systemic / pathology microscopic / liver / cellular alteration + systemic / pathology microscopic / liver / depletion glycogen + systemic / …): 3.75 mg/kg/day

CC(C)N(C(=O)CCl)c1ccccc1 [Propachlor]
LEL (dog [12]; [31]): 0.625 mg/kg/day
LOAEL (dog [12]; [31]): > 25 mg/kg/day
NEL (dog [12]; [31]): < 0.625 mg/kg/day
NOAEL (dog [12]; [31]): ≥ 25 mg/kg/day
LOAEL (dog [12]; [32]): 25 mg/kg/day
NOAEL (dog [12]; [32]): 6.25 mg/kg/day
LEL (dog [12]; [33]): 0.625 mg/kg/day
NEL (dog [12]; [33]): < 0.625 mg/kg/day
LEL (rabbit [13]): 50 mg/kg/day
LOAEL (rabbit [13]): 50 mg/kg/day
NEL (rabbit [13]): 5 mg/kg/day
NOAEL (rabbit [13]): 5 mg/kg/day
LEL (mouse [14]; systemic / organ weight / liver / nos): 75 mg/kg/day
NEL (mouse [14]; systemic / organ weight / liver / nos + systemic / organ weight / kidney / nos + systemic / pathology microscopic / liver / hypertrophy): 14.6 mg/kg/day
LOAEL (mouse [14]; [34]): 223 mg/kg/day
NOAEL (mouse [14]; [34]): 75 mg/kg/day
LEL (dog [15]; [35]): 2.5 mg/kg/day
NEL (dog [15]; [35]): < 2.5 mg/kg/day
LOAEL (dog [15]; [36]): > 37.5 mg/kg/day
NOAEL (dog [15]; [36]): ≥ 37.5 mg/kg/day
LEL (rat [16]; systemic / clinical chemistry / aspartate aminotransferase (ast/sgot) / aspartate aminotransferase (ast/sgot)): 16.1 mg/kg/day
LOAEL (rat [16]; [37]): 125 mg/kg/day
NEL (rat [16]; [37]): 5.4 mg/kg/day
NOAEL (rat [16]; [37]): 53.6 mg/kg/day
LEL (rat [17]; [27]): 69.6 mg/kg/day
LOAEL (rat [17]; [27]): 69.6 mg/kg/day
NEL (rat [17]; [38]): 7.1 mg/kg/day
NOAEL (rat [17]; [38]): 7.1 mg/kg/day
LEL (rat [17]; [39]): 69.6 mg/kg/day
LOAEL (rat [17]; [39]): 69.6 mg/kg/day
NEL (rat [17]; [39]): 7.1 mg/kg/day
NOAEL (rat [17]; [39]): 7.1 mg/kg/day
LEL (rat [17]; [40]): 141 mg/kg/day
LOAEL (rat [17]; [40]): > 141 mg/kg/day
NOAEL (rat [17]; [40]): ≥ 141 mg/kg/day

CCNc1nc(Cl)nc(NC(C)(C)C)n1 [Terbuthylazine]
LEL (rat [18]; [41]): 5 mg/kg/day
LOAEL (rat [18]; [41]): 5 mg/kg/day
NEL (rat [18]; [41]): 1 mg/kg/day
NOAEL (rat [18]; [41]): 1 mg/kg/day
LEL (rat [18]; [42]): 30 mg/kg/day
LOAEL (rat [18]; [42]): 30 mg/kg/day
NEL (rat [18]; [42]): 5 mg/kg/day
NOAEL (rat [18]; [42]): 5 mg/kg/day
NEL (rat [19]; [43]): 0.36 mg/kg/day
NOAEL (rat [19]; [43]): 0.36 mg/kg/day
LEL (rat [19]; [44]): 1.6 mg/kg/day
LOAEL (rat [19]; [44]): 1.6 mg/kg/day
LEL (rat [20]; [45]): 2.5 mg/kg/day
NEL (rat [20]; [45]): < 2.5 mg/kg/day
LOAEL (rat [20]; [46]): > 5 mg/kg/day
NOAEL (rat [20]; [46]): ≥ 5 mg/kg/day
LOAEL (rat [20]; [47]): > 5 mg/kg/day
NOAEL (rat [20]; [47]): ≥ 5 mg/kg/day
LEL (rat [20]; [48]): 2.5 mg/kg/day
NEL (rat [20]; [48]): < 2.5 mg/kg/day
LOAEL (rat [21]; [49]): 1.24 mg/kg/day
NOAEL (rat [21]; [49]): < 1.24 mg/kg/day
LEL (rat [21]; [50]): 1.24 mg/kg/day
NEL (rat [21]; [50]): < 1.24 mg/kg/day
LEL (rabbit [22]): 1 mg/kg/day
LOAEL (rabbit [22]): 1 mg/kg/day
NEL (rabbit [22]): < 1 mg/kg/day
NOAEL (rabbit [22]): < 1 mg/kg/day
LEL (mouse [23]): 3.22 mg/kg/day
LOAEL (mouse [23]): 3.22 mg/kg/day
NEL (mouse [23]): < 3.22 mg/kg/day
NOAEL (mouse [23]): < 3.22 mg/kg/day
LOAEL (rat [24]; [51]): 2.28 mg/kg/day
NOAEL (rat [24]; [51]): < 2.28 mg/kg/day
LEL (rat [24]; [52]): 2.28 mg/kg/day
NEL (rat [24]; [52]): < 2.28 mg/kg/day
